Measurements: patent US20050152835A1, “Technetium-99M glucarate methods of use for monitoring tissues” (priority 2003, published 2005)

Tests used:
[1] = system: ischemic-reperfused myocardium; experiment: FASTSPECT hot spot imaging and washout kinetics in ischemic-reperfused rat heart models (IR30, IR90); format: in vivo; parameters: half-time value (t1/2) of washout, late phase / half-time value (t1/2) of washout, early phase: unit not given here; conditions: for GLA hot spot size (% LV): 120-min image, mean ± SEM; for GLA hot spot size (% IAR): normalized to ischemic area at risk; for averaged ratio of whole-heart hot spot activity to normal myocardial activity: two hours after injection
Procedure: Ischemic-Reperfused Rat Heart Models were prepare from Male Sprague-Dawley rats (weight, 250-300 g) that were anesthetized with 1.0%-1.5% isoflurane. The model of myocardial ischemia-reperfusion was developed using know techniques. The rat was prepared by first removing the fur from the chest and neck region with electric clippers. The jugular vein was catheterized through a surgical procedure. An incision was made over the jugular furrow, and blunt and sharp dissection was used to isolate the jugular vein. A PE-10 catheter was advanced through a nick made by micro scissors and then secured by ligatures. After tracheotomy, the rats were ventilated using a volume-controlled Inspira Advanced Safety Ventilator (Harvard Apparatus, Inc.) with a mixture of oxygen and room air. Using each animal's weight, the tidal volume (1.2 mL/100 g) and respiration rate (65-70 breaths/min) were automatically calculated in Safe Range settings (Harvard Apparatus). With a left intercostals thoracotomy incision, the chest was opened at the fourth or fifth intercostal space. The pericardium was opened and the heart was exposed. A small, curved, tapered needle threaded 5-0 silk through the tissue between the pulmonary cone and the left auricular appendage. A ligature was placed around the LCA with a small amount of myocardium. The ligature was pulled tight by passing the suture through a polyethylene tubing and clamping it for coronary occlusion. After the LCA was occluded for 30 or 90 min, 30 min of reperfusion was achieved by releasing the ligature. Hydrochloride lidocaine (5%) was administered via intravenous injection and cardiac surface drop when ventricular fibrillation was induced by LCA occlusion or reflow. During the period of surgery and ischemia-reperfusion treatment, the body temperature of the animal was maintained with a heating pad. The chest of the rat was closed before the animal was imaged with FASTSPECT.
Eighteen rats were divided into 2 groups to receive regional myocardial ischemia-reperfusion treatments. Group 1 animals (IR30, n=12 [IR=ischemia-reperfusion]) were treated by ligating the LCA for 30 min and releasing the ligature for 30 min. The LCA in group 2 animals (IR90, n=6) was ligated for 90 min and then released for 30 min.
Radiopharmaceutical preparation; GLA kits were provided by Molecular Targeting Technologies Inc. The reagent in the vial was a sterile, nonpyrogenic, lyophilized composition of […], GLA, sodium bicarbonate, and hydrochloric acid. A vial of GLA was reconstituted by the addition of 1 mL of ^99mTc as sodium pertechnetate (no <2.59 GBq [no <70 mCi]) in accordance with the manufacturer's instructions. The solution in the vial was allowed to stand at room temperature for 15 min. ^99mTc-GLA radiochemical purity (RCP) was verified by thin-layer liquid chromatography using Gelman instant thin-layer silica gel (ITLC-SG) strips developed in saline and acetone. In the ITLC-SG strip developed by saline, ^99mTc-colloid remained at the origin while ^99mTc-GLA and ^99mTc-pertechnetate migrated near the solvent front. In the strip developed by acetone, ^99mTc-GLA and ^99mTc-colloid remained at the origin while ^99mTc-pertechnetate moved near the solvent front. The RCP of ^99mTc-GLA exceeded 95% for all experimental injections. ^99mTc-GLA was used within 3 h after preparation.
The high-resolution stationary SPECT system, FASTSPECT, was built in the Department of Radiology Research Laboratory at The University of Arizona (as described by references 9-11 in Liu et. al, J. Nucl. Med. (2004), vol. 45, pp 1251-1259). In this system, 24 small modular γ cameras are arranged in 2 circular arrays with a cylindric aperture. […] Twenty-four 1-mm diameter pinholes were drilled in the aperture such that a point source in the center of the field of view (FOV) is simultaneously projected to the center of each camera. The dead space between adjacent cameras at the director surface is 7% of the total area. […]

[2] = system: plasmocytoma (localized myeloma); experiment: Scintigraphy of a patient with plasmocytoma of T8; format: in vivo, human
Procedure: A patient complaining of invalidation pain in the spine (mid-thorax) for about two months. Peak of monoclonal IgG-k in serum. Bence-Jones protein in urine. Spine CT. lytic lesion of T8, with soft tissue infiltration. […] Uptake was obvious in the early images, 15 and 30 min p.i., late acquisition, 6 hr p.i., made the tracer uptake much more obvious.

Q: With ^99mTc-glucarate as the substance, how does the “GLA hot spot size (% LV)” value ([1]; IR30 (n = 12)) read?
A: The value was 28.4 ± 2.1 % LV.

Q: And the “GLA hot spot size (% IAR)” value ([1]; IR30 (n = 12))?
A: Its value is 58.4 ± 2.7 % IAR.

Q: And the “time after injection the infarct remained well defined” value ([1]; IR30 and IR90 hearts)?
A: Its value is “at least 120 min”.

Q: And the “hot spot/normal ratio in group 1 (IR30) relative to group 2 (IR90), fold lower” value ([1]; IR30 vs IR90)?
A: Its value is 1.94 fold.

Q: What about the “GLA hot spot size (% LV)” value ([1]; IR90 (n = 6)) of the same substance?
A: Its value is 42.0 ± 2.6 % LV.

Q: What about the “GLA hot spot size (% IAR)” value ([1]; IR90 (n = 6)) of the same substance?
A: The value was 75.9 ± 2.7 % IAR.

Q: What about the “final ratio of hot spot to normal myocardial activity” value ([1]; group 1 (IR30)) of the same substance?
A: The value was 4.91±0.71.

Q: And the “averaged ratio of whole-heart hot spot activity to normal myocardial activity” value ([1]; group 1 (IR30))?
A: The value was 4.1±0.3.

Q: What about the “final ratio of hot spot to normal myocardial activity” value ([1]; group 2 (IR90)) of the same substance?
A: Its value is 9.53±1.76.

Q: And the “averaged ratio of whole-heart hot spot activity to normal myocardial activity” value ([1]; group 2 (IR90))?
A: The value was 7.1±1.1.

Q: And the “half-time value (t1/2) of washout, early phase” value (shortened to “half-time value … early phase”) ([1]; hot spot, IR30)?
A: The value was 2.4±0.4.

Q: What about the “half-time value (t1/2) of washout, late phase” value (shortened to “half-time value … late phase”) ([1]; hot spot, IR30) of the same substance?
A: The value was 216.3±23.8.

Q: What about the “fractional retention (% peak) by the end of experiment” value (from here on “fractional retention (% peak)”) ([1]; hot spot, IR30 (30-min LCA occlusion, 30-min reperfusion), 2 h) of the same substance?
A: The value was 31.0±1.3 % peak.

Q: And the “half-time value … early phase” value ([1]; hot spot, IR90)?
A: Its value is 3.8±1.1.

Q: And the “half-time value … late phase” value ([1]; hot spot, IR90)?
A: The value was 511.5±74.2.

Q: And the “fractional retention (% peak)” value ([1]; hot spot, IR90 (90-min LCA occlusion, 30-min reperfusion), 2 h)?
A: The value was 42.1±4.0 % peak.

Q: And the “half-time value … early phase” value ([1]; normal zone, IR30)?
A: Its value is 1.6±0.4.

Q: And the “half-time value … late phase” value ([1]; normal zone, IR30)?
A: The value was 66.6±5.5.

Q: And the “fractional retention (% peak)” value ([1]; normal zone, IR30, 2 h)?
A: The value was 7.5±1.0 % peak.

Q: And the “half-time value … early phase” value ([1]; normal zone, IR90)?
A: Its value is 2.0±0.2.

Q: What about the “half-time value … late phase” value ([1]; normal zone, IR90) of the same substance?
A: Its value is 49.1±2.9.

Q: What about the “fractional retention (% peak)” value ([1]; normal zone, IR90, 2 h) of the same substance?
A: Its value is 6.4±0.9 % peak.

Q: And the “scan finding at diagnosis” value ([2]; patient with lytic lesion of T8, posterior view)?
A: The value was “focally increase tracer uptake in the bone lesion and in soft tissue”.

Q: And the “scan finding after about 1 year of stabilization and external radiotherapy” value ([2]; posterior view)?
A: The value was “normal physiologic tracer distribution, without areas of focally increased uptake”.
